In ChEMBL document CHEMBL1201862, “PubChem BioAssay data set” (2004):
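Values below derive from 48-hour exposures of cells grown in 96-well plates, with endpoints linearly interpolated between the two concentrations bracketing the appropriate inhibition level. At the GI50, growth is halved.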 Calls of active or inactive are those of the source. No stated cut-off is given here; in the data, active = GI50 up to about 1.1 µM and inactive = higher.

How the values were obtained:
Assay in all cases: NCI anticancer screen, dose series, 48 h
CCRF-CEM = tested on: CCRF-CEM
MDA-MB-435 = tested on: MDA-MB-435
MOLT-4 = tested on: MOLT-4
KM12 = tested on: KM12
MCF7 = tested on: MCF7
HOP-62 = tested on: HOP-62
PC-3 = tested on: PC-3
UACC-257 = tested on: UACC-257
SF-295 = tested on: SF-295
RPMI-8226 = tested on: RPMI-8226
TK-10 = tested on: TK-10
BT-549 = tested on: BT-549
HT-29 = tested on: HT-29
DU-145 = tested on: DU-145
SW-620 = tested on: SW-620
UO-31 = tested on: UO-31
786-0 = tested on: 786-0
UACC-62 = tested on: UACC-62
SK-OV-3 = tested on: SK-OV-3
HCC 2998 = tested on: HCC 2998

Structure (SMILES)	GI50 (CCRF-CEM)	GI50 (MDA-MB-435)	GI50 (MOLT-4)	GI50 (KM12)	GI50 (MCF7)	GI50 (HOP-62)	GI50 (PC-3)	GI50 (UACC-257)	GI50 (SF-295)	GI50 (RPMI-8226)	GI50 (TK-10)	GI50 (BT-549)	GI50 (HT-29)	GI50 (DU-145)	GI50 (SW-620)	GI50 (UO-31)	GI50 (786-0)	GI50 (UACC-62)	GI50 (SK-OV-3)	GI50 (HCC 2998)
NNc1nncc2[nH]nnc12	> 100 µM (inactive)	> 100 µM (inactive)	> 100 µM (inactive)	> 100 µM (inactive)	> 100 µM (inactive)	> 100 µM (inactive)	> 100 µM (inactive)	> 100 µM (inactive)	> 100 µM (inactive)	> 100 µM (inactive)	> 100 µM (inactive)	> 100 µM (inactive)	> 100 µM (inactive)	> 100 µM (inactive)	> 100 µM (inactive)	> 100 µM (inactive)	> 100 µM (inactive)	> 100 µM (inactive)		
c1ccc2c(c1)sc1c3cnccc3ccc21		> 100 µM (inactive)	19.5 µM (inactive)	46.6 µM (inactive)	24.1 µM (inactive)	> 100 µM (inactive)		56.6 µM (inactive)	85.9 µM (inactive)	0.0697 µM (active)	51.2 µM (inactive)	> 100 µM (inactive)	99.8 µM (inactive)	> 100 µM (inactive)	76.4 µM (inactive)	> 100 µM (inactive)	> 100 µM (inactive)	80.4 µM (inactive)	> 100 µM (inactive)	> 100 µM (inactive)
C=CCOc1ccc(C(=N/NC(=O)c2ccccc2)/N=N/c2ccccc2)cc1OC	36.6 µM (inactive)	> 100 µM (inactive)	42.6 µM (inactive)	54.2 µM (inactive)	> 100 µM (inactive)	> 100 µM (inactive)	79.1 µM (inactive)	> 100 µM (inactive)	> 100 µM (inactive)		> 100 µM (inactive)	42.5 µM (inactive)	46.5 µM (inactive)	> 100 µM (inactive)	> 100 µM (inactive)	92.9 µM (inactive)	> 100 µM (inactive)	71.1 µM (inactive)		37.5 µM (inactive)
C=C1C(=O)[C@]23[C@H](O)[C@H]1CC[C@H]2[C@@]12CO[C@@]3(O)C[C@@H]1C(C)(C)CC[C@@H]2O [MEGATHYRIN A]	7.59 µM (inactive)	4.12 µM (inactive)	7.11 µM (inactive)	6.22 µM (inactive)	6.18 µM (inactive)	> 25 µM (inactive)	9.2 µM (inactive)	6.01 µM (inactive)	12.3 µM (inactive)	7.4 µM (inactive)	9.75 µM (inactive)	4.37 µM (inactive)	6.21 µM (inactive)	9.53 µM (inactive)	5.5 µM (inactive)	13.8 µM (inactive)	9.57 µM (inactive)			8.69 µM (inactive)
N#CCCNCCN(CCN(C(=O)Nc1ccccc1)c1ccccc1)C(=O)Nc1ccccc1	78.9 µM (inactive)		39.4 µM (inactive)		37.8 µM (inactive)	65.9 µM (inactive)	57.3 µM (inactive)	15.7 µM (inactive)	51.8 µM (inactive)	57 µM (inactive)	29.5 µM (inactive)	38.4 µM (inactive)	33.2 µM (inactive)	66.8 µM (inactive)	59.7 µM (inactive)	26.4 µM (inactive)	37.1 µM (inactive)	32.2 µM (inactive)	> 100 µM (inactive)	16.1 µM (inactive)
O=C1c2ccccc2-c2cc([N+](=O)[O-])c([N+](=O)[O-])cc21	0.243 µM (active)	1.65 µM (inactive)	0.482 µM (active)	1.61 µM (inactive)	1.38 µM (inactive)	1.58 µM (inactive)	1.55 µM (inactive)	1.41 µM (inactive)	1.65 µM (inactive)	1.04 µM (active)	1.48 µM (inactive)	1.92 µM (inactive)	1.91 µM (inactive)	1.77 µM (inactive)	1.58 µM (inactive)	1.67 µM (inactive)	2.25 µM (inactive)	1.66 µM (inactive)	2.66 µM (inactive)	
CC1(CC2=C(C(=O)NCCO[Si](C)(C)C(C)(C)C)C3(OCCO3)C2=O)OCCO1	54.2 µM (inactive)	> 100 µM (inactive)	61.1 µM (inactive)	> 100 µM (inactive)	> 100 µM (inactive)	> 100 µM (inactive)	> 100 µM (inactive)	> 100 µM (inactive)	> 100 µM (inactive)		> 100 µM (inactive)	53.2 µM (inactive)	> 100 µM (inactive)	> 100 µM (inactive)	> 100 µM (inactive)	> 100 µM (inactive)	> 100 µM (inactive)	> 100 µM (inactive)	> 100 µM (inactive)	
C=C(C)[C@@H]1CC[C@]2(C(=O)O)CC[C@]3(C)[C@H](CC[C@@H]4[C@@]5(C)CC[C@H](C(=O)/C=C/c6ccc(O)cc6)C(C)(C)[C@@H]5CC[C@]43C)[C@@H]12	2.39 µM (inactive)	7.67 µM (inactive)	2.85 µM (inactive)	3.29 µM (inactive)	3.67 µM (inactive)	8.39 µM (inactive)	5.98 µM (inactive)	3.58 µM (inactive)	6.15 µM (inactive)		7.82 µM (inactive)	10.4 µM (inactive)	3.38 µM (inactive)	5.73 µM (inactive)	2.93 µM (inactive)	5.2 µM (inactive)	4.92 µM (inactive)	8.89 µM (inactive)	6.15 µM (inactive)	3.21 µM (inactive)
O=[N+]([O-])C(=C1Nc2ccccc2N1)/C(Cl)=C(/Cl)N1CCOCC1	50.8 µM (inactive)	> 100 µM (inactive)	17.4 µM (inactive)	> 100 µM (inactive)	45.8 µM (inactive)	97.9 µM (inactive)	87.7 µM (inactive)	> 100 µM (inactive)	98.4 µM (inactive)	57.7 µM (inactive)		27.5 µM (inactive)	> 100 µM (inactive)		30.5 µM (inactive)	> 100 µM (inactive)	98.9 µM (inactive)	77.6 µM (inactive)	> 100 µM (inactive)	> 100 µM (inactive)
Cc1cc(C2(c3cc(C)c(O)c(C(=O)O)c3)OS(=O)(=O)c3ccccc32)cc(C(=O)O)c1O		> 100 µM (inactive)	0.205 µM (active)	> 100 µM (inactive)	> 100 µM (inactive)	> 100 µM (inactive)	> 100 µM (inactive)	> 100 µM (inactive)	> 100 µM (inactive)	> 100 µM (inactive)	> 100 µM (inactive)	> 100 µM (inactive)	> 100 µM (inactive)	> 100 µM (inactive)	> 100 µM (inactive)	> 100 µM (inactive)	> 100 µM (inactive)	> 100 µM (inactive)	> 100 µM (inactive)	
COc1cc(C(=O)/C=C/c2ccc(OCCSCCCCCCCCCCSCCOc3ccc(/C=C/C(=O)c4cc(OC)c(OC)c(OC)c4)cc3)cc2)cc(OC)c1OC	> 100 µM (inactive)	> 100 µM (inactive)	> 100 µM (inactive)	> 100 µM (inactive)	> 100 µM (inactive)	> 100 µM (inactive)	> 100 µM (inactive)		> 100 µM (inactive)	> 100 µM (inactive)	> 100 µM (inactive)	> 100 µM (inactive)	> 100 µM (inactive)	> 100 µM (inactive)	> 100 µM (inactive)	> 100 µM (inactive)	> 100 µM (inactive)	> 100 µM (inactive)		> 100 µM (inactive)
CC(=O)/C=N/CC(=O)O	> 100 µM (inactive)	> 100 µM (inactive)	> 100 µM (inactive)	> 100 µM (inactive)	> 100 µM (inactive)	> 100 µM (inactive)	> 100 µM (inactive)	> 100 µM (inactive)	> 100 µM (inactive)	> 100 µM (inactive)	> 100 µM (inactive)	> 100 µM (inactive)	> 100 µM (inactive)	> 100 µM (inactive)	> 100 µM (inactive)		> 100 µM (inactive)	> 100 µM (inactive)	> 100 µM (inactive)	
OCC(CN1CCCCC1)(CN1CCCCC1)CN1CCCCC1	> 100 µM (inactive)	> 100 µM (inactive)	> 100 µM (inactive)	> 100 µM (inactive)	> 100 µM (inactive)	> 100 µM (inactive)	> 100 µM (inactive)	> 100 µM (inactive)	> 10 µM (inactive)		> 100 µM (inactive)	> 100 µM (inactive)	> 100 µM (inactive)	> 100 µM (inactive)	> 100 µM (inactive)	> 100 µM (inactive)	> 100 µM (inactive)	> 100 µM (inactive)	> 100 µM (inactive)	> 100 µM (inactive)
OC(c1ccccc1)c1c(-c2ccccc2)[nH]c(-c2ccccc2)c1C(O)c1ccccc1 (stereo not given)	2.65 µM (inactive)	3.18 µM (inactive)	2.94 µM (inactive)	3.25 µM (inactive)	3.78 µM (inactive)	4.58 µM (inactive)	2.54 µM (inactive)	3.04 µM (inactive)	3.75 µM (inactive)	2.09 µM (inactive)	4.44 µM (inactive)		3.99 µM (inactive)	5.28 µM (inactive)	4.9 µM (inactive)	1.45 µM (inactive)	4.38 µM (inactive)	2.84 µM (inactive)	4.25 µM (inactive)	7.24 µM (inactive)
O=C(O)c1ccccc1/C=N/N=C1c2ccccc2-c2ccccc21	25.5 µM (inactive)	29.9 µM (inactive)	22.5 µM (inactive)	22.2 µM (inactive)	31.2 µM (inactive)	42.6 µM (inactive)	30.3 µM (inactive)	85.1 µM (inactive)	29.3 µM (inactive)	20.2 µM (inactive)	74.8 µM (inactive)	71.9 µM (inactive)	29 µM (inactive)	42.7 µM (inactive)	32.4 µM (inactive)	32.7 µM (inactive)	29.6 µM (inactive)	44.9 µM (inactive)	44.9 µM (inactive)	
